US7056693B2 (priority 1998, dated 2006)

Test system: National Cancer Institute's 60 cell line
Assay type: cell-based

How did the “Activity profile in the 60 cell line database compared with LF” value turn out when “2-(2′-amino-3′-methoxyphenyl)-oxanaphthalen-4-one [PDO9859]” was run?
Its value is “activity profile that is similar to LF”.
